Test results: US9625448B2, “Double caged GABA compounds, bis-CNB-GABA” (The Trustees of Princeton University, priority 2014, dated 2017)
Values joined by “and” are separate entries in the source; they are usually repeats but may differ in a detail not shown here. Equal values may be shown once. Read-outs that look alike come from different tables or passages of the source. Each block holds one compound with its values, some of them ahead of it.

What was measured:
GABAA receptors = test: Spontaneous IPSC / miniature GABA current amplitude, whole-cell patch recording from cerebellar molecular layer interneurons; format: cell-based
Method: Bis-CNB-GABA was applied in vitro. Currents were recorded from cerebellar interneurons. […] FIG. 35 (right) illustrates response traces before and after application of bis-CNB-GABA. FIG. 35 (left) illustrates summary of data. FIG. 36 illustrates effects of 1 mM bis-CNB-GABA on spontaneously evoked miniature glutamate and miniature GABA currents in cerebellar interneuron.
The biological properties of our synthetic bis-CNB-GABA were evaluated using whole-cell patch recording from cerebellar molecular layer interneurons.
FIGS. 43A-43E illustrate quantification of unwanted effects of caged GABA. Referring to FIGS. 43A-43E, first, changes in whole-cell holding current under voltage clamp were monitored while caged GABA compounds were applied by bath application or by local perfusion as per Civillico, E. F.; Shoham, S.; O'Connor, D. H.; Sarkisov, D. V.; Wang, S. S.-H. Cold Spring Harb. Protoc. 2012, which is incorporated herein by reference as if fully set forth). FIG. 43A illustrates voltage-clamp recordings from cerebellar interneurons exposed to caged GABA. Referring to this figure, upper trace corresponds to 1 mM bis-CNB-GABA; middle trace corresponds to 0.1 mM mono-O-CNB-GABA; bottom trace corresponds to 1 mM DPNI-GABA. Referring to FIG. 43A, (right) expanded traces illustrating the detailed effects on steady-state holding current and fluctuations in holding current were observed. FIG. 43B illustrates effects of caged GABA on spontaneous IPSCs and excitatory postsynaptic currents (EPSCs). Referring to FIG. 43B, IPSCs and EPSCs were identified and separated based on kinetic criteria. FIG. 43B (left) illustrates box plots of spontaneous postsynaptic current amplitudes in control conditions and in the presence of 1 mM bis-CNB-GABA. Referring to FIG. 43B (left), boxes show interquartile range and whiskers show full range of values. FIG. 43B (right) illustrates individual traces (gray) and average (block) of detected spontaneous IPSCs and EPSCs. FIG. 43C illustrates dependence of spontaneous IPSC amplitude on bis-CNB-GABA concentration. […] FIG. 43D illustrates comparison of effects of mono-O-CNB-GABA (0.1 mM) and bis-CNB-GABA (1.0 mM, except for 0.4 mM for IPSCs) on spontaneous IPSC amplitude, standard deviation of holding current (noise), and holding current (Ihold). FIG. 43E illustrates spontaneous EPSC size was unaffected by bis-CNB-GABA at all concentrations tested. Referring to FIGS. 43A and 43D, under these conditions, mono-O-CNB-GABA (0.1 mM) led to increases of 66±47 pA (mean±SD, n=6) in inward holding current at −60 mV (Ihold). This inward current presumably arises either via indirectly evoked increases in excitation or from direct activation of GABAA receptors (by residual free GABA in the caged compound solution or by mono-O-CNB-GABA, which may itself have partial agonist activity). See Dellal., S. S.; Luo, R.; Otis, T. S. J. Neurophysiol., 2012, 107, 2958-2970, which is incorporated herein by reference as if fully set forth.
Referring to FIG. 43B, the effects of bis-CNB-GABA on spontaneous IPSCs was next measured. […] Referring to FIG. 43B, in contrast, addition of bis-CNB-GABA served to reduce GABA current amplitudes by approximately one-third (FIG. 43B, top; 0.4 to 2.0 mM; ratio of amplitudes during drug/control: 0.68±0.17, n=14). […] This IC50 is, in fact, a lower bound; the material tested was crude product, which may contain minute amounts of mono-CNB-GABA.

[1] = 1994, cited from earlier work
physchem = format: physicochemical; details: for rate of spontaneous photoproduct / GABA production: aqueous buffer, 23° C., 12 mM, pH 7.4, fluorescent room lights, first 8 days
Method: The hydrolytic stability of bis-CNB-GABA under normal handling conditions was examined. Accordingly, we prepared samples of bis-CNB-GABA and mono-O-CNB-GABA were prepared in aqueous buffer (23° C., 12 mM, pH=7.4), stored the samples under fluorescent room lights, and determined accumulation of deprotected GABA at 1-day intervals.
FIGS. 44A-44B illustrate accumulation of GABA in ambient room light. FIG. 44A illustrates 1H NMR data used to quantify GABA accumulation. Top, bis-CNB-GABA before light exposure. Arrows denote methylene peaks of bis-CNB-GABA. Peaks at ˜3.45 ppm and ˜3.2 ppm in each spectrum correspond to dimethoxyethane, used as an internal standard. Bottom, The teal overlay indicates the post-photolysis spectrum of bis-CNB-GABA after 17 days of exposure to ambient fluorescent light. Arrows denote the two visible peaks corresponding to a combination of GABA and mono-N-CNB-GABA photoproducts. Note the lack of extraneous peaks in the 0-4 ppm range after light exposure. The dominant final photoproduct of bis-CNB-GABA was GABA, as identified using ^1H NMR. FIG. 44A illustrates 1H NMR data used to quantify GABA accumulation. Referring to this figure (top), bis-CNB-GABA before light exposure. Arrows denote methylene peaks of bis-CNB-GABA. Still referring to FIG. 44A, peaks at ˜3.45 ppm and ˜3.2 ppm in each spectrum correspond to dimethoxyethane, used as an internal standard. Still referring to FIG. 44A (bottom), the teal overlay indicates the post-photolysis spectrum of bis-CNB-GABA after 17 days of exposure to ambient fluorescent light. Arrows denote the two visible peaks corresponding to a combination of GABA and mono-N-CNB-GABA photoproducts. The lack of extraneous peaks in the 0-4 ppm range was observed after light exposure. The combined amount of mono-decaging (N-CNB-GABA) and double-decaging (GABA) photoproduct was quantified using the integrated multiplet at 2.15 ppm, with dimethoxyethane (singlet peaks at 3.20 and 3.45 ppm) as a standard.

cerebellar interneurons = test: Whole-cell holding current under voltage clamp in cerebellar interneurons exposed to caged GABA; format: cell-based
Excerpt: FIGS. 43A-43E illustrate quantification of unwanted effects of caged GABA. Referring to FIGS. 43A-43E, first, changes in whole-cell holding current under voltage clamp were monitored while caged GABA compounds were applied by bath application or by local perfusion as per Civillico, E. F.; Shoham, S.; O'Connor, D. H.; Sarkisov, D. V.; Wang, S. S.-H. Cold Spring Harb. Protoc. 2012, which is incorporated herein by reference as if fully set forth). FIG. 43A illustrates voltage-clamp recordings from cerebellar interneurons exposed to caged GABA. Referring to this figure, upper trace corresponds to 1 mM bis-CNB-GABA; middle trace corresponds to 0.1 mM mono-O-CNB-GABA; bottom trace corresponds to 1 mM DPNI-GABA. Referring to FIG. 43A, (right) expanded traces illustrating the detailed effects on steady-state holding current and fluctuations in holding current were observed. FIG. 43B illustrates effects of caged GABA on spontaneous IPSCs and excitatory postsynaptic currents (EPSCs). Referring to FIG. 43B, IPSCs and EPSCs were identified and separated based on kinetic criteria. FIG. 43B (left) illustrates box plots of spontaneous postsynaptic current amplitudes in control conditions and in the presence of 1 mM bis-CNB-GABA. Referring to FIG. 43B (left), boxes show interquartile range and whiskers show full range of values. FIG. 43B (right) illustrates individual traces (gray) and average (block) of detected spontaneous IPSCs and EPSCs. FIG. 43C illustrates dependence of spontaneous IPSC amplitude on bis-CNB-GABA concentration. […]
Referring to FIG. 43D, in contrast, application of bis-CNB-GABA (raw product, 0.4 to 2.0 mM) evoked no detectable change in the holding current (ratio of holding current drug/control=1.0±0.3, n=14, p=0.7, Mann-Whitney test) or in its standard deviation, which is a measure of steady-state channel noise (from 3.0±0.5 to 3.2±0.8 pA, n=14, p=0.3) measured during periods of no spontaneous currents. […]

Structure (SMILES): O=C(CCCNC(C(=O)O)c1ccccc1[N+](=O)[O-])OC(C(=O)O)c1ccccc1[N+](=O)[O-] (centres unmarked) [bis-CNB-GABA, 2-((4-(Carboxy(2-nitrophenyl)methoxy)-4-oxobutyl)amino)-2-(2-nitrophenyl)acetic acid]
concentration generating 33% reduction in response (GABAA receptors): 1 mM | effects on holding current, IPSCs, or EPSCs (GABAA receptors; 1 mM): minimal or no effects | decrease in miniature GABA response amplitude / reduction of GABA currents (GABAA receptors; 1 mM, cerebellar interneuron): ~33% | ratio of GABA current (spontaneous IPSC) amplitudes during drug/control (GABAA receptors; 0.4 to 2.0 mM, n=14): 0.68±0.17 | Kd (GABAA receptors; FIG. 43C, read-out: KD of fit, dependence of spontaneous IPSC amplitude on concentration): 2500 ± 200 µM | IC50 (GABAA receptors; Table 1, calculated from q=[j]/[j]+IC50, read-out: IC50): 2000 µM | IC33 (GABAA receptors; Table 1, calculated, q=0.33): 1.0 | IC50 (GABAA receptors; Table 2, the data herein, read-out: IC50 in blocking synaptic GABAA currents): ≥ 2500 µM | 10-90% rise time of IPSCs (GABAA receptors; during bis-CNB-GABA application, control 0.44±0.13 ms): 0.44±0.11 ms | IC50 (GABAA receptors; read-out: estimated IC50 from concentration-dependence of the reduction of spontaneous IPSC amplitude, crude product, stated to be a lower bound): ≥ 2500 µM | antagonist activity at submillimolar concentrations (GABAA receptors; submillimolar concentrations): virtually no antagonist activity | fold less antagonistic binding compared to CDNI-GABA (GABAA receptors; vs CDNI-GABA): 4 fold | fold less antagonism compared to DPNI-GABA (GABAA receptors; vs DPNI-GABA): 4 fold | fold lower affinity / reduction of antagonism compared to mono-caged analog (GABAA receptors; vs mono-CNB-GABA): 70 fold and 100 fold | dark reaction time ([1]; N-position, Wieboldt et al.): 1.5 ms | rate of spontaneous photoproduct / GABA production (physchem): 1.5±0.1 %/day | half-life at 12 mM (physchem; buffer, pH 7.4): 98 days | accumulation of GABA (physchem; during a week in the light): less than 1% | estimated production of N-CNB-GABA (physchem; during a week in the light): 10% | standard deviation of holding current (steady-state channel noise) (cerebellar interneurons; 0.4 to 2.0 mM, control 3.0±0.5 pA, n=14): 3.2±0.8 pA | ratio of holding current drug/control (cerebellar interneurons; raw product, 0.4 to 2.0 mM, n=14): 1.0±0.3

rate of spontaneous photoproduct / GABA production (physchem): 1.0±0.2 %/day | extrapolated half-life t1/2 (physchem; buffer, pH 7.4): 138 days
Structure (SMILES): NCCCC(=O)OC(C(=O)O)c1ccccc1[N+](=O)[O-] (centres unmarked) [mono-CNB-GABA]
effect on rate of spontaneous IPSCs (GABAA receptors; 1 mM): dramatic decrease | uncaging speed ([1]; Gee et al.): microsecond range | increase in inward holding current at −60 mV (Ihold) (cerebellar interneurons; 0.1 mM, mean±SD, n=6): 66±47 pA
